Measured values published in patent US7598261B2, “Spirocyclic heterocyclic derivatives and methods of their use” (Adolor Corporation, priority 2005, dated 2009).

How the values were obtained:
[1] = molecular target: T1, cloned human δ opioid receptor (Homo sapiens, UniProt P41143); experiment: [3H]diprenorphine receptor binding, δ opioid receptor; details: inhibition of [3H]diprenorphine binding, read-out: affinity (Ki value), delta opioid receptor
T1 construct: expressed in transfected cells; host or cells: CHO cells (membrane preparations)
T1 sequence (P41143 whole entry): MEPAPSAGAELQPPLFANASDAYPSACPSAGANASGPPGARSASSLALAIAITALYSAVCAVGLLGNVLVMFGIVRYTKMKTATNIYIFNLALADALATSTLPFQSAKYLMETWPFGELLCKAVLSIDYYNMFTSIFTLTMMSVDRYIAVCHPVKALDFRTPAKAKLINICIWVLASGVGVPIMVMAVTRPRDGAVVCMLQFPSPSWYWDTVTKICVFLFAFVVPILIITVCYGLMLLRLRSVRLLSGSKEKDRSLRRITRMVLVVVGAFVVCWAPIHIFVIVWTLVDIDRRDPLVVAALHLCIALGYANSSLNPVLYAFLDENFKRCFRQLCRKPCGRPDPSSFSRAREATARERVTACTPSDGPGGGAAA
Procedure: (§1) The potencies of the compounds listed in Table 2 were determined by testing the ability of a range of concentrations of each compound to inhibit the binding of the non-selective opioid antagonist, [^3H]diprenorphine, to the cloned human μ, κ, and δ opioid receptors, expressed in separate cell lines. IC50 values were obtained by nonlinear analysis of the data using GraphPad Prism version 3.00 for Windows (GraphPad Software, San Diego). Ki values were obtained by Cheng-Prusoff corrections of IC50 values.
(§2) The receptor binding method (DeHaven and DeHaven-Hudkins, 1998) was a modification of the method of Raynor et al. (1994). After dilution in buffer A and homogenization as before, membrane proteins (10-80 μg) in 250 μL were added to mixtures containing test compound and [^3H]diprenorphine (0.5 to 1.0 nM, 40,000 to 50,000 dpm) in 250 μL of buffer A in 96-well deep-well polystyrene titer plates (Beckman). […] The filters were rinsed 4 times with 1 mL of cold 50 mM Tris HCl, pH 7.8 and radioactivity remaining on the filters determined by scintillation spectroscopy. Nonspecific binding was determined by the minimum values of the titration curves and was confirmed by separate assay wells containing 10 μM naloxone. Ki values were determined by Cheng-Prusoff corrections of IC50 values derived from nonlinear regression fits of 12 point titration curves using GraphPad Prism® version 3.00 for Windows (GraphPad Software, San Diego, Calif.).
To determine the equilibrium dissociation constant for the inhibitors (Ki), radioligand bound (cpm) in the presence of various concentrations of test compounds was measured. The concentration to give half-maximal inhibition (EC50) of radioligand binding was determined from a best nonlinear regression fit to the following equation, […]
The potencies of the compounds were determined by testing the ability of a range of concentrations of each compound to inhibit the binding of the non-selective opioid antagonist, [^3H]diprenorphine, to the cloned human μ, κ, and δ opioid receptors, expressed in separate cell lines. […]

[2] = molecular target: T1, cloned human δ opioid receptor; experiment: Receptor-mediated [35S]GTPγS binding (agonist potency); assay type: biochemical; details: stimulation of [35S]GTPγS binding, membranes with cloned human δ opioid receptor; read-out: in vitro δ agonist activity (EC50)
Procedure: The potency and efficacy of compounds at each of the receptors are assessed by modifications of the methods of Selley et al., 1997 and Traynor and Nahorski, 1995 using receptor-mediated [^35S]GTPγS binding in the same membrane preparations used to measure receptor binding. Assays are carried out in 96-well FlashPlates® (Perkin Elmer Life Sciences, Inc, Boston, Mass.). Membranes prepared from CHO cells expressing the appropriate receptor (50-100 μg of protein) are added to assay mixtures containing agonist with or without antagonists, 100 pM [^35S]GTPγS (approx. 100,000 dpm), 3.0 μM GDP, 75 mM NaCl, 15 mM MgCl2, 1.0 mM ethylene glycol-bis(β-aminoethyl ether)-N,N,N′,N′-tetracetic acid, 1.1 mM dithiothreitol, 10 μg/mL leupeptin, 10 μg/mL pepstatin A, 200 μg/mL bacitracin, and 0.5 μg/mL aprotinin in 50 mM Tris-HCl buffer, pH 7.8. After incubation at room temperature for one hour, the plates are sealed, centrifuged at 800×g in a swinging bucket rotor for 5 min and bound radioactivity determined with a TopCount microplate scintillation counter (Packard Instrument Co., Meriden, Conn.).
EC50 values for agonists are determined from nonlinear regression fits of 8- or 12-point titration curves to the 4-parameter equation for a sigmoidal dose-response with a slope factor of 1.0 using GraphPad Prism® version 3.00 for Windows (GraphPad Software, San Diego, Calif.).
The potencies of the compounds were determined by testing the ability of a range of concentrations of each compound to inhibit the binding of the non-selective opioid antagonist, [^3H]diprenorphine, to the cloned human μ, κ, and δ opioid receptors, expressed in separate cell lines. […] These compounds display high selectivity δ/κ and δ/μ (at least 10-fold). The potencies of the agonists were assessed by their abilities to stimulate [^35S]GTPγS binding to membranes containing the cloned human δ opioid receptors.

[3] = molecular target: T2, cloned human κ opioid receptor (Homo sapiens, UniProt P41145); experiment: [3H]diprenorphine receptor binding, κ opioid receptor; details: inhibition of [3H]diprenorphine binding, read-out: affinity (Ki value), kappa opioid receptor
T2 construct: expressed in transfected cells; host or cells: CHO cells (membrane preparations)
T2 sequence (P41145 whole entry): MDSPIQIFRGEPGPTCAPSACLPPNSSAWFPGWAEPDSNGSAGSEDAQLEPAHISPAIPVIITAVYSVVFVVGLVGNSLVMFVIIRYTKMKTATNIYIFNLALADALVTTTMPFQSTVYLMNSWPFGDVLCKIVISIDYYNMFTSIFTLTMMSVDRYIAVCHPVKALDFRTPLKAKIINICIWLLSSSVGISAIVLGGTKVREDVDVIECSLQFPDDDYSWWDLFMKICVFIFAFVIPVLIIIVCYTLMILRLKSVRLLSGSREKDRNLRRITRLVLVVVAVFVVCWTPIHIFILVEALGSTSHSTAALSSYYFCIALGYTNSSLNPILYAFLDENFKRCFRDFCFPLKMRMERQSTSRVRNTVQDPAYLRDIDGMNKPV
Procedure: as §1
as §2, with “(1994).” for “(1994). After dilution in buffer A and homogenization as before, membrane proteins (10-80 μg) in 250 μL were added to mixtures containing test compound and [^3H]diprenorphine (0.5 to 1.0 nM, 40,000 to 50,000 dpm) in 250 μL of buffer A in 96-well deep-well polystyrene titer plates (Beckman).”
(§3) To determine the equilibrium dissociation constant for the inhibitors (Ki), radioligand bound (cpm) in the presence of various concentrations of test compounds was measured. […]

[4] = molecular target: T3, cloned human μ opioid receptor (Homo sapiens, UniProt P35372); experiment: [3H]diprenorphine receptor binding, μ opioid receptor; details: inhibition of [3H]diprenorphine binding, read-out: affinity (Ki value), mu opioid receptor
T3 construct: expressed in transfected cells; host or cells: CHO cells (membrane preparations)
T3 sequence (P35372 whole entry): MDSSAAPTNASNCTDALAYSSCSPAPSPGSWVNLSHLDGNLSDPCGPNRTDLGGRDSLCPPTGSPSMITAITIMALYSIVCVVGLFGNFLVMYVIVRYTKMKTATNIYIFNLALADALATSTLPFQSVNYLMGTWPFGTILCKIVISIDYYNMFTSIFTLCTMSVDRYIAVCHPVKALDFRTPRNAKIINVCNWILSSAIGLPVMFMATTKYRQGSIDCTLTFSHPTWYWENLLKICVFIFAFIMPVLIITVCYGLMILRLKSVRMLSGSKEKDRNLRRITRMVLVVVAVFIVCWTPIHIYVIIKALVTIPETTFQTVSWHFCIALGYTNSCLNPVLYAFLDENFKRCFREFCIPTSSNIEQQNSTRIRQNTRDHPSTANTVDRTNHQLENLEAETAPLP
Procedure: as §1
as §2, with “(1994).” for “(1994). After dilution in buffer A and homogenization as before, membrane proteins (10-80 μg) in 250 μL were added to mixtures containing test compound and [^3H]diprenorphine (0.5 to 1.0 nM, 40,000 to 50,000 dpm) in 250 μL of buffer A in 96-well deep-well polystyrene titer plates (Beckman).”
as §3

Structure (SMILES)	Ki [1] [nM]	EC50 [2] [nM]	Ki [3] [nM]	Ki [4] [nM]
CCN(CC)C(=O)c1ccc(C2CC3(CCNCC3)Oc3ccc(F)cc32)c(O)c1 (single isomer, unassigned) [61A]	0.59	16.8	–	–
CCN(CC)C(=O)c1ccc(C2CC3(CCNCC3)Oc3ccc(F)cc32)c(O)c1 (single isomer, unassigned) [61B]	75	1280	–	–
CC(=O)c1ccc(C2=CC3(CCNCC3)Oc3ccccc32)cc1 [33M]	9.7	287	> 1000	> 1000
